{"source": "patent US9403806B1", "about": "“Cognition enhancing compounds and compositions, methods of making, and methods of treating” (NeuroSolis, Inc., priority 2010, dated 2016)", "key": {"rat M3 receptors": {"biological_target": "T1, rat M3 receptors (Rattus norvegicus, UniProt P08483)", "T1 construct": "host or cells: CHO (M3-CHO)", "T1 sequence (P08483 whole entry)": "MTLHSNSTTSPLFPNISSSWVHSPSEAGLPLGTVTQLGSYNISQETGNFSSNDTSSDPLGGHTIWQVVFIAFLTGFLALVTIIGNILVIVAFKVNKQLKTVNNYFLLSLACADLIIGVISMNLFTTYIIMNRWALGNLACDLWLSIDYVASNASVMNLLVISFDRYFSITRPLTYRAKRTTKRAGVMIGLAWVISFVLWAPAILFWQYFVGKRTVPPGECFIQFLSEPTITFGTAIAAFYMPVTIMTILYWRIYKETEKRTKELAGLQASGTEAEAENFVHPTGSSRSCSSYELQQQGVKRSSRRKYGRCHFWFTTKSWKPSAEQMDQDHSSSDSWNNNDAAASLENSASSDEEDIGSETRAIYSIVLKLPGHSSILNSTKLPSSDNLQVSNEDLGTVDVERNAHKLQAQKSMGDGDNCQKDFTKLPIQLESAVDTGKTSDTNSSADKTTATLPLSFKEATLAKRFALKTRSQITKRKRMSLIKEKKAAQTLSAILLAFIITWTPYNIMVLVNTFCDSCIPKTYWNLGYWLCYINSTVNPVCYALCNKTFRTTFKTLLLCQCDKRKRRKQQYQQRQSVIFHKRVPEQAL", "assay": "PI turnover (inositol phosphate production) in M3-CHO cells", "type": "cell-based", "settings": "mean Smax relative to carbachol (100.0); CHO cells expressing rat M3", "protocol": "The medium was changed to 70 μL/well of inositol-free DMEM containing 2 mM glutamine, 10% FBS and 10 μCi/ml of [3H]-inositol (PE:cat # NET114A250UC), incubated overnight as above, then 100 μL of a solution of the test compound in HBSS containing 10 mM LiCl and 20 mM HEPES, pH 7.4 was added, incubation was continued for 60 min under the above conditions, and the test was stopped by removing the test compound and replacing with 100 μL of 50 mM formic acid in water at 4° C. […] The compounds in Table 1 are all dihydropyrimidine-oxadiazoles which vary only at the oxadiazole side chain."}, "[1]": {"system": "hippocampal inositol phosphate", "assay": "In vivo tissue inositol phosphate signaling pathway activation, hippocampus", "parameters": "species or system Long Evans Hooded rats", "settings": "rats, 30 mg/kg sc (FIG. 10B)"}, "[2]": {"system": "healthy male volunteer human subjects", "assay": "Monitoring of cholinergic side effects in healthy volunteers", "type": "in vivo", "settings": "6 subjects", "protocol": "(§1) A single 5 mg capsule or 5×0.2 mg capsules (1 mg total dose) were administered orally to healthy male volunteer human subjects with 125 ml of water. Six such subjects receiving the 5 mg dose, and a different 6 subjects received the 1 mg dose.\nSubjects were monitored, among other things, for typical signs of muscarinic cholinergic action, such as increased salivation, lachrimation and diaphoresis."}, "[3]": {"assay": "Serum pharmacokinetics of immediate release capsules in healthy volunteers", "type": "in vivo, human", "settings": "5 mg dose cohort, 6 subjects", "protocol": "The hydrochloride salt of MCD-386 (“MCD-386 HCl”) was formulated with the following excipients and loaded into #3 hard gelatin capsules (5 mg dose) or #2 hard gelatin capsules (0.2 mg dose).\nas §1\nVenous blood samples were drawn at various intervals after dosing from each subject into standard tubes for bioanalytical and pharmacokinetic analysis. The blood was allowed to clot, and the serum separated, using common clinical laboratory techniques. Serum samples were stored at −20 deg C. until used for analysis.\nMCD-386 HCl, which exists in serum principally as the protonated form of MCD-386, was assayed in clinical serum samples as follows. […] The MS/MS transitions monitored were 181.1 m/z to 111.0 m/z for MCD-386 HCl and 186.1 m/z to 111.1 m/z for the internal standard, D5-MCD-386 HCl. […] The lower limit of quantitation (LLOQ) was 0.100 ng MCD-386 HCl per mL of serum. MCD-386 HCl concentrations are expressed as free base. […]\nThe bioanalytical results were analyzed using Win Nonlin software and common pharmacokinetic methods known to those skilled in the art."}}, "data": [{"molecule": "CCc1noc(C2CN=CNC2)n1", "note": "(centres unmarked) [MCD-386, 3-ethyl-5-(1,4,5,6-tetrahydropyrimidin-5-yl)-1,2,4-oxadiazole]", "values": [{"measurement": "M3/CHO PI turnover Relative Mean Smax", "setting": "rat M3 receptors", "result": 46.4}, {"measurement": "increase in the concentration of IP in the hippocampus", "setting": "[1]", "result": 71, "unit": "%"}, {"measurement": "observable cholinergic side effects", "setting": "[2]; 1 mg total oral dose cohort", "result": "none of the subjects in the 1 mg total dose cohort experienced any observable cholinergic side effects"}, {"measurement": "observable cholinergic side effects", "setting": "[2]; 5 mg oral dose cohort", "result": "four subjects showed signs of muscarinic cholinergic activity"}, {"measurement": "main metabolite in serum samples", "setting": "[3]", "result": "identified in the serum samples of five out of six subjects"}]}]}
